Where a name gives a salt, the structure may show the parent alone.
Legend:
prostacyclin synthetase [1] = molecular target: T1, prostacyclin synthetase (Sus scrofa, UniProt A0A5G2QT35); conditions: pre-incubation of the enzyme; Prostaglandins, 1976, 12, 715; cited from earlier work
T1 construct: Pig aorta microsomes; from tissue; host or cells: pig aorta (microsomes)
T1 sequence (A0A5G2QT35 1-497): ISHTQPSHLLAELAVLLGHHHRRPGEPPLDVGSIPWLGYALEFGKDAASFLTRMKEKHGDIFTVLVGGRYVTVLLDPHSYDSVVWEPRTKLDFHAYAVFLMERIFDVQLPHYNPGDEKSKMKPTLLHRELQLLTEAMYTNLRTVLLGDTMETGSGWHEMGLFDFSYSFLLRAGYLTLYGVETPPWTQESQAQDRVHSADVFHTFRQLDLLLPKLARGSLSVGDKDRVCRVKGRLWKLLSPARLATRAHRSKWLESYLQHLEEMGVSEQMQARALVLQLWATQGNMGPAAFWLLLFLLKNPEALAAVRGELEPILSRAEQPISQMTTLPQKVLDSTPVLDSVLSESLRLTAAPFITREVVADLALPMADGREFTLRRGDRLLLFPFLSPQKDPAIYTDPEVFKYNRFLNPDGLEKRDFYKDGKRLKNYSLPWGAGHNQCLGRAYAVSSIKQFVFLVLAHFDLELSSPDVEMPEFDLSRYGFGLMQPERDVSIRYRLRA

[2] = tested on: prostacyclin and thromboxane A2 levels; conditions: cited from earlier work
[3] = tested on: arachidonic acid induced death in rabbits; conditions: rabbit, intravenous injection of arachidonic acid; cited from earlier work
[4] = tested on: human blood platelet aggregation; conditions: human blood platelets; cited from earlier work
cyclo-oxygenase enzyme = conditions: cited from earlier work
thromboxane synthetase = molecular target: T2, thromboxane synthetase (Homo sapiens, UniProt P24557); test: Thromboxane A2 (TxA2) synthetase inhibition (indomethacin pre-treated human platelet microsomes, rabbit aorta superfusion bioassay); format: biochemical; conditions: 5 min pre-incubation, isometric tension of rabbit aorta, read-out: Molar concentration causing 50% inhibition of (1) thromboxane synthetase
T2 construct: Indomethacin pre-treated human platelet microsomes; from tissue; host or cells: human blood platelets (microsomes)
T2 sequence (P24557 1-533): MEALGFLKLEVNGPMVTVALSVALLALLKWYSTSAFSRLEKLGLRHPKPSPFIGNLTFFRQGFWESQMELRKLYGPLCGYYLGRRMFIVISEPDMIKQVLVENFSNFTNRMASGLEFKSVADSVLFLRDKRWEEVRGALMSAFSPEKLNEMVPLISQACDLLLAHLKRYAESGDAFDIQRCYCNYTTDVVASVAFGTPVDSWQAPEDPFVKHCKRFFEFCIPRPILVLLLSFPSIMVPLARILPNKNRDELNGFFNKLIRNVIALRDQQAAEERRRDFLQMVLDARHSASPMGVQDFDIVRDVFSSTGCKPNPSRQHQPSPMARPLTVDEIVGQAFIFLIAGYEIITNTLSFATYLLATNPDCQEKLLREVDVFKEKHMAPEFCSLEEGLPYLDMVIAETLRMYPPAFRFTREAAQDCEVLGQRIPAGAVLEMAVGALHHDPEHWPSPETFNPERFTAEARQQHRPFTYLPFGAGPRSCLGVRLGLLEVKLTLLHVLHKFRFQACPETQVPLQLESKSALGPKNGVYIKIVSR
Experimental: 3. Thromboxane A2 (TxA2) Synthetase
Indomethacin pre-treated human platelet microsomes (Science 1976, 193, 163) are incubated (2 min.: 0° C.) with PGH2 (produced as in 1) and aliquots of the reaction mixture superfused over two rabbit aorta spirals which are separated by a delay coil (2 min.). The latter is required to allow the selective decay of the more unstable thromboxane A2 (Proc. Nat. Acad. Sci., 1975, 72, 2994) thereby enabling the separate measurement of increased isometric tension due to the TxA2 formed and the PGH2 remaining. The test compound is pre-incubated with the enzyme for 5 minutes, and its ability to inhibit the thromboxane synthetase enzyme is measured as its reduction of the TxA2 component of the isometric tension.
(§1) The results of these tests are shown in the following Table, which gives the molar concentration of each compound which caused a 50% change in the effect of the relevant enzyme on isometric tension, i.e. caused a 50% inhibition of the action of that enzyme.

cyclo-oxygenase = molecular target: T3, cyclo-oxygenase (Ovis aries, UniProt P05979); test: Cyclo-oxygenase inhibition (ram seminal vesicle microsomes, rabbit aorta strip bioassay); format: biochemical; conditions: 5 min pre-incubation, isometric tension of rabbit aorta, read-out: Molar concentration causing 50% inhibition of (2) cyclo-oxygenase
T3 construct: Ram seminal vesicle microsomes; from tissue; host or cells: ram seminal vesicle (microsomes)
T3 sequence (P05979 25-600): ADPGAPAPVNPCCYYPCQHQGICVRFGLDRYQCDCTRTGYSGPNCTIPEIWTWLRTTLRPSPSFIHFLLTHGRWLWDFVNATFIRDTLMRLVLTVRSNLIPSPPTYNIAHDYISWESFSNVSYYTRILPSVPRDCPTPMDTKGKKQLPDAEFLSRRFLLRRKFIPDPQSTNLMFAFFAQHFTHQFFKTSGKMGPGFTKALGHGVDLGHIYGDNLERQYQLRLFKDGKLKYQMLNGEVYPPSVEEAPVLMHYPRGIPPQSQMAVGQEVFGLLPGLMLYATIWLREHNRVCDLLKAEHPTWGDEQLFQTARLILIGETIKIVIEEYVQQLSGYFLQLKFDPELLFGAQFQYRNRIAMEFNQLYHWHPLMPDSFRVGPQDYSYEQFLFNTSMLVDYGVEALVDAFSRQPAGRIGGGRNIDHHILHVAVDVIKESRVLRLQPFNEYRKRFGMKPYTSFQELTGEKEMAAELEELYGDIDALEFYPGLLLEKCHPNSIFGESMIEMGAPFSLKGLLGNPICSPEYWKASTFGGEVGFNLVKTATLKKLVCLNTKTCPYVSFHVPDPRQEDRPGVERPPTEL
Experimental: Ram seminal vesicle microsomes (Biochemistry, 1971, 10, 2372) are incubated with arachidonic acid (100 μM: 1 min.: 22°) to produce PGH2 and aliquots of the reaction mixture injected into a stream of Krebs-bicarbonate at 37° C. (containing a mixture of antagonists (Nature, […], 218, 1135) and indomethacin (Brit. J. Pharmacol., 1972, 45, 451) which is superfusing a spirally-cut rabbit aorta strip (Nature, 1969, 223, 29). The ability of a compound to inhibit the enzyme is measured by comparing the increases in isometric tension produced by PGH2 in the absence of the test compound, and following pre-incubation of the enzyme with the test compound for 5 minutes.
as §1

prostacyclin synthetase [5] = molecular target: T1, prostacyclin synthetase; test: Prostacyclin (PGI2) synthetase inhibition (pig aorta microsomes, rabbit aorta bioassay); format: biochemical; conditions: 5 min pre-incubation, isometric tension of rabbit aorta, read-out: Molar concentration causing 50% inhibition of (3) prostacyclin synthetase
Experimental: 2. Prostacyclin (PGI2) Synthetase
Pig aorta microsomes (Nature, 1976, 263, 663) are incubated (30 sec.: 22° C.) with PGH2 produced as in 1) and aliquots bio-assayed as in 1. […] The test compound is then pre-incubated with the enzyme for 5 minutes, and its ability to prevent the decrease in tension is measured.
as §1

aggregation of platelets = conditions: rats, abdominal aorta, in vivo; cited from earlier work

Row | Compound | IC50 (thromboxane synthetase) [nM] | IC50 (cyclo-oxygenase) [nM] | also measured
1 | 15-hydroperoxy-arachidonic acid |  |  | prevention of the decrease in PGH2-induced tension (PGI2 synthetase inhibition, in words) (prostacyclin synthetase [1]): prevented completely
2 | CC(=O)Oc1ccccc1C(=O)O [Aspirin] |  |  | effect on prostacyclin and thromboxane A2 levels (in words) [2]: reduce both the prostacyclin and thromboxane A2 levels; protection from the lethal effect of intravenous arachidonic acid [3]: protect the rabbit from the lethal effect of the injection; inhibitory activity in vitro against a variety of aggregating agents [4]: show inhibitory activity in vitro against a variety of aggregating agents; inhibition of the cyclo-oxygenase enzyme (in words) (cyclo-oxygenase enzyme): inhibit the cyclo-oxygenase enzyme
3 | Cc1ccc(OCC(=O)O)c(Cn2ccnc2)c1 [Example 2, 2-(1-Imidazolylmethyl)-4-methyl-phenoxyacetic acid hydrochloride hemihydrate] | 8.2 | > 100000 | IC50 (prostacyclin synthetase [5]): > 100000 nM
4 | Cc1ccc(OCCCC(N)=O)c(Cn2ccnc2)c1 [Example 4, 4-[2-(1-Imidazolylmethyl)-4-methyl-phenoxy]butyramide] | 2.4 | > 100000 | 
5 | Cc1ccc(OCc2ccc(C(=O)O)cc2)c(Cn2ccnc2)c1 [Example 5, 4-[2-(1-Imidazolylmethyl)-4-methyl-phenoxymethyl]benzoic acid] | 47 | > 100000 | 
6 | NC(=O)COc1ccc(Cn2ccnc2)cc1 [Example 8, 4-(1-Imidazolylmethyl)phenoxyacetamide] | 46 | > 100000 | 
7 | O=C(O)COc1cccc(Cn2ccnc2)c1 [Example 24, 3-(1-Imidazolylmethyl)phenoxyacetic acid hydrochloride] | 4.5 |  | 
8 | O=C1C(CC[S+]([O-])c2ccccc2)C(=O)N(c2ccccc2)N1c1ccccc1 (stereo not drawn) [sulphinpyrazone] |  |  | protection from the lethal effect of intravenous arachidonic acid [3]: protect the rabbit from the lethal effect of the injection; inhibitory activity in vitro against a variety of aggregating agents [4]: show inhibitory activity in vitro against a variety of aggregating agents; prevention of the aggregation of platelets in an extra corporeal loop (aggregation of platelets): prevent the aggregation of platelets
